Earlier results as cited in US20070037797A1, “Method of reducing the risk of adverse cardiovascular (CV) events associated with the administration of pharmaceutical agents which favor CV events” (priority 2005, published 2007).
Like-named read-outs stand apart in the source and are kept apart here.

Tests used:
[1] = in vivo
[2] = use at high frequency or dose
[3] = individuals with essential hypertension
[4] = FDA determination
[5] = versus the non-selective NSAID naproxen
[6] = 25 mg/day of rofecoxib versus placebo
[7] = losartan vs. captopril
[8] = Losartan 50 mg vs. captopril 50 mg three times daily, patients with heart failure
[9] = high-risk patients with diabetes mellitus, compared to placebo
[10] = in vivo; remark: listed apart in the source
[11] = 10 mg dose
[12] = not given; remark: listed apart in the source

Structure (SMILES): COc1ccc(OC(=O)N(CC(=O)O)Cc2ccc(OCCc3nc(-c4ccccc4)oc3C)cc2)cc1 [muraglitazar]
- risk of myocardial infarct and stroke [1]: increases the risk of myocardial infarct and stroke

Structure (SMILES): CC(=O)Nc1ccc(O)cc1 [acetaminophen]
- risk of adverse CV events [2]: significant increase

Structure (SMILES): CCC(=O)NS(=O)(=O)c1ccc(-c2c(-c3ccccc3)noc2C)cc1 [parecoxib]
- endothelial dysfunction [3]: worsening

Structure (SMILES): CS(=O)(=O)c1ccc(C2=C(c3ccccc3)C(=O)OC2)cc1 [rofecoxib]
- risk of adverse CV events compared to placebo [4]: increased risk of adverse CV events
- increase in the incidence of myocardial infarction [5]: approximately two
- selectivity for COX-2 compared with celecoxib (COX-2 relative to COX-1): 10 times
- increase in the incidence of serious thrombotic adverse events [6]: approximately two

Structure (SMILES): CCCCc1nc(Cl)c(CO)n1Cc1ccc(-c2ccccc2-c2nn[nH]n2)cc1 [Losartan]
- clinical endpoints [7]: no significant difference
- mortality [8]: significant reduction in mortality

Structure (SMILES): CCOC(=O)[C@H](CCc1ccccc1)N[C@@H](C)C(=O)N1[C@H](C(=O)O)C[C@@H]2CCC[C@@H]21 [ramipril]
- relative risk reduction, combined primary outcome of myocardial infarction, stroke, and cardiovascular death [9]: 25%

Structure (SMILES): O=C(c1ccc(OCCN2CCCCC2)cc1)c1c(-c2ccc(O)cc2)sc2cc(O)ccc12 [raloxifene]
- risk of stroke [10]: increases the risk of stroke

Structure (SMILES): CC(C)c1c(C(=O)Nc2ccccc2)c(-c2ccccc2)c(-c2ccc(F)cc2)n1CC[C@@H](O)C[C@@H](O)CC(=O)O [atorvastatin]
- reduction in LDL [11]: 39%

Structure (SMILES): Cc1onc(-c2ccccc2)c1-c1ccc(S(N)(=O)=O)cc1 [valdecoxib]
- risk of adverse CV events compared to placebo [4]: increased risk of adverse CV events

Structure (SMILES): Cc1ccc(-c2cc(C(F)(F)F)nn2-c2ccc(S(N)(=O)=O)cc2)cc1 [celecoxib]
- risk of adverse CV events compared to placebo [4]: increased risk of adverse CV events
- hazard for the composite endpoint of death from CV causes (200 mg twice daily compared to placebo): 2.5
- hazard for the composite endpoint of death from CV causes (400 mg twice daily compared to placebo): 3.4
- increase in adverse CV events (versus placebo after a mean duration of 33 months): 2-3 fold

Structure (SMILES): CCCCC(=O)N(Cc1ccc(-c2ccccc2-c2nnn[nH]2)cc1)[C@H](C(=O)O)C(C)C [valsartan]
- survival and rates of non-fatal CV events ([12]; patients with myocardial infarction): improved survival and reduced the rates of non-fatal CV events
- improving survival and reducing cardiovascular morbidity compared with captopril ([12]; target dose of 160 mg twice daily): as effective as the ACE inhibitor captopril
